# According to US6348484B1, “Stereoisomeric indole compounds, process for the preparation of the same, and use thereof” (Lead Chemical Co., Ltd., priority 1997, dated 2002):
# How the values were obtained:
# [1] = tested on: lipid peroxidation of microsome in rat liver; test: Inhibitory action against lipid peroxidation of microsome in rat liver (TBA reactive substances, absorption at 535 nm); type: biochemical
# Method: 10 μl of microsome fraction (protein concentration; 30-50 mg/ ml) prepared from rat liver and 10 μl of a solution of a compound to be tested in ethanol are added to 0.5 ml of 0.1 M Tris hydrochloride buffer (pH7.5) containing 14 mM MgCl2, which is mixed and preincubated at 37° C. for 5 minutes. Then, 10 μl of 0.2M adenosine diphosphate, 10 μl of 12 mM FeSO4, 40 μl of NADPH reproduced system and distilled water are added to make 1 m1, mixed and reacted at 37° C. for 10 minutes.
Compound,melting point,"Inhibiting Concentration (IC50 μg/ml) ([1]; Example 7, rat liver microsome fraction, ADP/FeSO4/NADPH system, 37° C. for 10 minutes)","Inhibiting Concentration (IC50 μg/ml) ([1]; Example 8, method of Example 7, deamino form compared with synthetic (1″S, 3″S) Martefragin A)"
CC[C@H](C)CCc1nc(COOCc2ccccc2)c(-c2c[nH]c3ccccc23)o1 [compound 55],138.5 to 139.5 °C,,
"(1″S, 3″S) Martefragin A [(1″S, 3″S)-19]",,1.07 µg/mL,1.35 µg/mL
